According to patent publication US20250326748A1, “COMPOUNDS AND METHODS FOR MODULATING SPLICING” (REMIX THERAPEUTICS INC., priority 2022, published 2025):
Where a name gives a salt, the structure may show the parent alone. Read-outs that look alike come from different tables or passages of the source.

Columns and labels:
SMN2 mRNA = assay: Splicing RT-qPCR panel, SMN2 canonical junction (CJ) mRNA; format: cell-based, human; conditions: Homo sapiens, read-out: SMN2 CJ (decrease in CJ mRNA levels, IC50)
Summary of the method: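 A673 cells (DMEM, 10% FBS) or K562 cells (IMDM, 10% FBS) treated 24 h at 37 °C with an 11-point 3-fold dilution, top 10 uM, DMSO ≤0.25%. Canonical-junction mRNA quantified in lysates by RT-qPCR, normalised to GAPDH, GUSB or PPIA and to DMSO (2^−ΔΔCt), then converted to % response.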

HTT mRNA = assay: Splicing RT-qPCR assay, HTT canonical (CJ) and alternative (AJ) junction mRNA; format: cell-based, human; conditions: Homo sapiens; for IC50: canonical junction mRNA; for AC50: alternative junction mRNA, read-out: HTT AJ (AC50, increase in AJ mRNA)
Summary of the method: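 Treatment of A673 or K562 cultures with compounds (eleven-point titration, highest final 10 uM, ≤0.25% DMSO) ran one day at 37 °C. Afterwards cells were lysed directly in the well, and cDNA synthesis coupled with qPCR measured CJ and AJ isoform levels against a reference transcript.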

[1] = 24 h, RT-qPCR, A673 or K562 cells, 24 hours treatment, read-out: HTT CJ (IC50, decrease in CJ mRNA)
[2] = qPCR panel, read-out: HTT CJ (decrease in CJ mRNA levels, IC50)
[3] = RT-qPCR, A673 or K562 cells, 24 hours treatment

Structure (SMILES) | IC50 (SMN2 mRNA) | IC50 (HTT mRNA; [1]) | IC50 (HTT mRNA; [2]) | AC50 (HTT mRNA; [3])
Cn1cc2cc(-c3cnc4nc(N5CCC(NC(C)(C)C)C5)ccc4c3)c(O)cc2n1 (centres unmarked) [Compound 133, 5-{7-[3-(tert-butylamino)pyrrolidin-1-yl]-1,8-naphthyridin-3-yl}-2-methylindazol-6-ol] | > 10000 nM | 1000 to 10000 nM | 1000 to 10000 nM | > 10000 nM
Cc1c(O)c(-c2cc(Cl)c3cc(N(C)[C@H]4CCNC4)cnc3n2)cc2cn(C)nc12 [Compound 294] | < 100 nM | 100 to 1000 nM | 100 to 1000 nM | 1000 to 10000 nM
CNC(=O)c1cc(-c2cc3cn(C)nc3c(C)c2O)nc2ncc(N3CCNCC3)cc12 [Compound 150, 2-(6-hydroxy-2,7-dimethylindazol-5-yl)-N-methyl-6-(piperazin-1-yl)-1,8-naphthyridine-4-carboxamide] | 1000 to 10000 nM | > 10000 nM | > 10000 nM | > 10000 nM
Cc1c(O)c(-c2ccc3c(C(F)(F)F)c(N4CCNCC4)cnc3n2)cc2cn(C)nc12 [Compound 302, 2,7-dimethyl-5-[6-(piperazin-1-yl)-5-(trifluoromethyl)-1,8-naphthyridin-2-yl]indazol-6-ol] | 100 to 1000 nM | 1000 to 10000 nM | 1000 to 10000 nM | > 10000 nM
Cc1c(O)c(-c2cc(Cl)c3cc(N4CCNC(C)C4)cnc3n2)cc2cn(C)nc12 (centres unmarked) [Compound 147] | < 100 nM | 100 to 1000 nM | 100 to 1000 nM | 100 to 1000 nM
C[C@H]1CN(c2cnc3nc(-c4cc(F)c5nn(C)cc5c4)cc(Cl)c3c2)C[C@@H](C2CC2)N1 [Compound 288] | < 100 nM | 1000 to 10000 nM | 1000 to 10000 nM | 1000 to 10000 nM
CNC1CCN(c2cnc3nc(-c4cc5cn(C)nc5c(C)c4O)cc(Cl)c3c2)C1 (centres unmarked) [Compound 142, 5-{4-chloro-6-[3-(methylamino)351pyrrolidine-1-yl]-1,8-naphthyridin-2-yl}-2,7-dimethylindazol-6-ol] | < 100 nM | < 100 nM | < 100 nM | 100 to 1000 nM
CN(C)C1CCN(c2cnc3nc(-c4cc5cn(C)nc5cc4O)ccc3c2)CC1 [Compound 316] | < 100 nM | 1000 to 10000 nM | 1000 to 10000 nM | 1000 to 10000 nM
C[C@@H]1CN(c2cnc3nc(-c4cc(F)c5nn(C)cc5c4)cc(Cl)c3c2)CCN1 [Compound 295, 4-chloro-2-(7-fluoro-2-methylindazol-5-yl)-6-[(3R)-3-methylpiperazin-1-yl]-1,8-naphthyridine] | < 100 nM | 100 to 1000 nM | 100 to 1000 nM | 100 to 1000 nM
C[C@H]1CN(c2cnc3nc(-c4cc(F)c5nn(C)cc5c4)cc(Cl)c3c2)CCN1 [Compound 296] | < 100 nM | 100 to 1000 nM | 100 to 1000 nM | 1000 to 10000 nM
Cc1c(O)c(-c2ccc3cc(N4CCC(NCC5CC5)C4)cnc3n2)cc2cn(C)nc12 (centres unmarked) [Compound 105, 5-(6-{3-[(cyclopropylmethyl)amino]pyrrolidin-1-yl}-1,8-naphthyridin-2-yl)-2,7-dimethylindazol-6-ol] | < 100 nM | 100 to 1000 nM | 100 to 1000 nM | 100 to 1000 nM
CN[C@@H]1CCN(c2cnc3nc(-c4cc5cn(C)nc5c(C)c4O)cc(Cl)c3c2)C1 [Compound 286, 5-{4-chloro-6-[(3R)-3-(methylamino)pyrrolidin-1-yl]-1,8-naphthyridin-2-yl}-2,7-dimethylindazol-6-ol hydrochloride] | < 100 nM | < 100 nM | < 100 nM | < 100 nM
Cc1c(O)c(-c2ccc3cc(N4CCNCC4)cnc3n2)cc2cn(C)nc12 [Compound 137, 2,7-dimethyl-5-[6-(piperazin-1-yl)-1,8-naphthyridin-2-yl]indazol-6-ol] | < 100 nM | 100 to 1000 nM | 100 to 1000 nM | 100 to 1000 nM
Cc1cn2cc(-c3ccc4cc(N5C[C@@H](C)N[C@@H](C)C5)cnc4n3)cc(F)c2n1 [Compound 350] | 100 to 1000 nM | > 10000 nM | > 10000 nM | > 10000 nM
Cn1cc2cc(-c3cc(Cl)c4cc(N5CCNC6(CC6)C5)cnc4n3)c(O)c(F)c2n1 [Compound 274] | < 100 nM | 100 to 1000 nM | 100 to 1000 nM | 100 to 1000 nM
Cn1cc2cc(-c3ccc4cc(N5CC[C@@H](NCC6CC6)C5)cnc4n3)c(O)cc2n1 [Compound 313] | < 100 nM | 100 to 1000 nM | 100 to 1000 nM | 100 to 1000 nM
CCN[C@H]1CCN(c2cnc3nc(-c4cc5cn(C)nc5cc4O)cc(Cl)c3c2)C1 [Compound 318] | < 100 nM | 100 to 1000 nM | 100 to 1000 nM | 1000 to 10000 nM
CN[C@@H]1CN(c2cnc3nc(-c4cc5cn(C)nc5c(C)c4O)ccc3c2)C[C@@H]1C [Compound 128] | < 100 nM | 100 to 1000 nM | 100 to 1000 nM | 100 to 1000 nM
Cc1c(O)c(-c2cc(Cl)c3cc(N(C)[C@@H]4CCNC4)cnc3n2)cc2cn(C)nc12.Cl [Compound 293] | < 100 nM | 100 to 1000 nM | 100 to 1000 nM | 100 to 1000 nM
CN[C@H]1CN(c2cnc3nc(-c4cc5cn(C)nc5c(C)c4O)ccc3c2)C[C@@H]1C [Compound 127, 2,7-dimethyl-5-{6-[(3S,4R)-3-methyl-4-(methylamino)384pyrrolidine-1-yl]-1,8-naphthyridin-2-yl}indazol-6-ol] | < 100 nM | 100 to 1000 nM | 100 to 1000 nM | 100 to 1000 nM
Cn1cc2cc(-c3ccc4cc(N5CC[C@H](NCC6CC6)C5)cnc4n3)c(O)c(F)c2n1 [Compound 136, 5-{6-[(3S)-3-[(cyclopropylmethyl)amino]326pyrrolidine-1-yl]-1,8-naphthyridin-2-yl}-7-fluoro-2-methylindazol-6-ol] | < 100 nM | 100 to 1000 nM | 100 to 1000 nM | 100 to 1000 nM

Now from value to compound, other results behind:

IC50 (SMN2 mRNA) | IC50 (HTT mRNA; [1]) | IC50 (HTT mRNA; [2]) | Structure (SMILES) | AC50 (HTT mRNA; [3])
< 100 nM | 100 to 1000 nM | 100 to 1000 nM | Cc1cn2nc(-c3cc(Cl)c4cc(N5CCC(N6CCC6)CC5)cnc4n3)cc(C)c2n1 [Compound 349] | 100 to 1000 nM
< 100 nM | 1000 to 10000 nM | 1000 to 10000 nM | CN[C@H]1CN(c2cnc3nc(-c4cc5cn(C)nc5c(C)c4O)ccc3c2)C[C@@H]1F (single isomer, unassigned) [Compound 131] | 1000 to 10000 nM
< 100 nM | 1000 to 10000 nM | 1000 to 10000 nM | C[C@@H]1CN(c2cnc3nc(-c4cc5cn(C)nc5c(F)c4O)cc(C4CC4)c3c2)C[C@H](C)N1 [Compound 305, 5-{4-cyclopropyl-6-[(3R,5S)-3,5-dimethylpiperazin-1-yl]-1,8-naphthyridin-2-yl}-7-fluoro-2-methylindazol-6-ol] | 1000 to 10000 nM
< 100 nM | < 100 nM | < 100 nM | Cc1c(O)c(-c2ccc3cc(N4CCC(NCC5CC5)C4)cnc3n2)cc2cn(C)nc12 (stereo in doubt) [Compound 119, 5-{6-[(3R)-3-[(cyclopropylmethyl)amino]pyrrolidin-1-yl]-1,8-naphthyridin-2-yl}-2,7-dimethylindazol-6-ol] | 100 to 1000 nM
< 100 nM | 100 to 1000 nM | 100 to 1000 nM | CN[C@H]1CCN(c2cnc3nc(-c4cc5cn(C)nc5c(C)c4O)ncc3c2)C1 [Compound 120] | 100 to 1000 nM
< 100 nM | 1000 to 10000 nM | 1000 to 10000 nM | Cc1c(O)c(-c2ccc3c(Cl)c(N4CCNCC4)cnc3n2)cc2cn(C)nc12 [Compound 278, 5-[5-chloro-6-(piperazin-1-yl)-1,8-naphthyridin-2-yl]-2,7-dimethylindazol-6-ol] | 1000 to 10000 nM
< 100 nM | < 100 nM | < 100 nM | CCN[C@@H]1CCN(c2cnc3nc(-c4cc5cn(C)nc5c(C)c4O)ccc3c2)C1 [Compound 124] | < 100 nM
< 100 nM | 100 to 1000 nM | 100 to 1000 nM | Cc1cc(-c2cc3cn(C)nc3c(C)c2O)nc2ncc(N3CCNCC3)cc12 [Compound 151, 2,7-dimethyl-5-[4-methyl-6-(piperazin-1-yl)-1,8-naphthyridin-2-yl]indazol-6-ol] | 100 to 1000 nM
< 100 nM | 100 to 1000 nM | 100 to 1000 nM | Cc1cn2nc(-c3cc(Cl)c4cc(N5C[C@@H](C)N[C@@H](C)C5)cnc4n3)cc(C)c2n1 [Compound 335, 4-chloro-2-{2,8-dimethylimidazo[1,2-b]478pyridazine-6-yl}-6-[(3R,5S)-3,5-dimethylpiperazin-1-yl]-1,8-naphthyridine] | 1000 to 10000 nM
< 100 nM | < 100 nM | < 100 nM | CN[C@@H]1CCN(c2cnc3nc(-c4cc5cn(C)nc5c(C)c4O)ncc3c2)C1 [Compound 107, 2,7-dimethyl-5-{6-[(3R)-3-(methylamino)pyrrolidin-1-yl]pyrido[2,3-d]pyrimidin-2-yl}indazol-6-ol hydrochloride] | < 100 nM
< 100 nM | 100 to 1000 nM | 100 to 1000 nM | CN[C@@H]1CN(c2cnc3nc(-c4cc5cn(C)nc5c(C)c4O)ccc3c2)C[C@H]1F (single isomer, unassigned) [Compound 130] | 100 to 1000 nM
